Data from patent US20240050428A1 (Cullgen (Shanghai), Inc., priority 2020, published 2024).
Like-named read-outs stand apart in the source and are kept apart here.

Columns and labels:
MV4;11 cells = experiment: Cell viability assay (CellTiter-Glo) in MV4;11 cells, alone or with gilteritinib; format: cell-based; conditions: Homo sapiens, MV4-11, 72 h, MV4;11 cells, CellTiter-Glo, read-out: MV4
MOLM-13 cells = experiment: Cell viability assay (CellTiter-Glo) in MOLM-13 cells, alone or with gilteritinib; format: cell-based; conditions: Homo sapiens, MOLM-13, 72 h, MOLM-13 cells, CellTiter-Glo
[1] = compound alone (without gilteritinib), three days, 11 IC50
[2] = with gilteritinib 10 nM, three days, 11 IC50 gilteritinib
[3] = compound alone (without gilteritinib), three days, read-out: MOLM-13 IC50
[4] = with gilteritinib 20 nM, three days, read-out: MOLM-13 IC50 gilteritinib
[5] = compound with gilteritinib 10 nM, three days, 11 IC50 gilteritinib
[6] = compound with gilteritinib 20 nM, three days, read-out: MOLM-13 IC50 gilteritinib

| SMILES | IC50 (MV4;11 cells; [1]) [nM] | IC50 (MV4;11 cells; [2]) [nM] | IC50 (MOLM-13 cells; [3]) [nM] | IC50 (MOLM-13 cells; [4]) [nM] | IC50 (MV4;11 cells; with 10 nM gilteritinib, 3 days, 11 IC50 gilteritinib) [nM] | IC50 (MV4;11 cells; without gilteritinib, 3 days, 11 IC50) [nM] | IC50 (MOLM-13 cells; with 20 nM gilteritinib, 3 days, read-out: MOLM-13 IC50 gilteritinib) [nM] | IC50 (MOLM-13 cells; without gilteritinib, 3 days, read-out: MOLM-13 IC50) [nM] | IC50 (MV4;11 cells; [5]) [nM] | IC50 (MOLM-13 cells; [6]) [nM] |
| --- | --- | --- | --- | --- | --- | --- | --- | --- | --- | --- |
| Cc1nn(C2CC(CCCNc3ccc4c(c3)C(=O)N(C3CCC(=O)NC3=O)C4=O)C2)c(C)c1-c1cnc2ccccc2n1 (centres unmarked) [GS-167, 5-((3-(3-(3,5-Dimethyl-4-(quinoxalin-2-yl)-1H-pyrazol-1-yl)cyclobutyl)propyl)amino)-2-(2,6-dioxopiperidin-3-yl)isoindoline-1,3-dione] | > 1000 | 100 to 1000 | > 1000 | < 10 |  |  |  |  |  |  |
| O=C1CCC(N2C(=O)c3ccc(NCCCCCC(=O)N4CCC(N5CCOCC5)CC4)cc3C2=O)C(=O)N1 (centres unmarked) [GS-011, 2-(2,6-Dioxopiperidin-3-yl)-5-((6-(4-morpholinopiperidin-1-yl)-6-oxohexyl)amino)isoindoline-1,3-dione] |  |  |  |  | > 10000 | > 10000 | 270 | > 10000 |  |  |
| O=C1CCC(N2C(=O)c3ccc(NCCCCC(=O)N4C5CCC4CC(n4cc(-c6cnc7ccccc7n6)cn4)C5)cc3C2=O)C(=O)N1 (centres unmarked) [GS-136, 2-(2,6-Dioxopiperidin-3-yl)-5-((5-oxo-5-(3-(4-(quinoxalin-2-yl)-1H-pyrazol-1-yl)-8-azabicyclo[3.2.1]octan-8-yl)pentyl)amino)isoindoline-1,3-dione] | > 1000 | > 1000 | > 1000 | > 1000 |  |  |  |  |  |  |
| Cc1cccc(-c2ccn([C@H]3C[C@H](CNc4ccc5c(c4)C(=O)N(C4CCC(=O)NC4=O)C5=O)C3)n2)n1 (stereo partly drawn) [GS-065, 2-(2,6-Dioxopiperidin-3-yl)-5-(((trans-3-(3-(6-methylpyridin-2-yl)-1H-pyrazol-1-yl)cyclobutyl)methyl)amino)isoindoline-1,3-dione] | > 1000 | > 1000 | > 1000 | > 1000 |  |  |  |  |  |  |
| Cc1nn(CCCCCCNc2ccc3c(c2)C(=O)N(C2CCC(=O)NC2=O)C3=O)c(C)c1-c1nc2ccccc2nc1C(F)(F)F (centres unmarked) [GS-540, 5-((6-(3,5-Dimethyl-4-(3-(trifluoromethyl)quinoxalin-2-yl)-1H-pyrazol-1-yl)hexyl)amino)-2-(2,6-dioxopiperidin-3-yl)isoindoline-1,3-dione] | > 1000 |  | > 1000 |  |  |  |  |  | 10 to 100 | 10 to 100 |
| CN1CCN(c2cccc3ncc(-c4cnn(CCCCCCNc5ccc6c(c5)C(=O)N(C5CCC(=O)NC5=O)C6=O)c4)nc23)CC1 (centres unmarked) [GS-383, 2-(2,6-Dioxopiperidin-3-yl)-5-((6-(4-(8-(4-methylpiperazin-1-yl)quinoxalin-2-yl)-1H-pyrazol-1-yl)hexyl)amino)isoindoline-1,3-dione] | > 1000 | 100 to 1000 | > 1000 | > 1000 |  |  |  |  |  |  |
| Cc1nn(CCCCCCNc2ccc3c(c2)C(=O)N(C2CCC(=O)NC2=O)C3=O)c(C)c1-c1cnccn1 (centres unmarked) [GS-146, 5-((6-(3,5-Dimethyl-4-(pyrazin-2-yl)-1H-pyrazol-1-yl)hexyl)amino)-2-(2,6-dioxopiperidin-3-yl)isoindoline-1,3-dione] | > 1000 | 10 to 100 | 100 to 1000 | 10 to 100 |  |  |  |  |  |  |
| CN1CCC(c2cccc3ncc(-c4cnn(CCCCCCNc5ccc6c(c5)C(=O)N(C5CCC(=O)NC5=O)C6=O)c4)nc23)CC1 (centres unmarked) [GS-388, 2-(2,6-Dioxopiperidin-3-yl)-5-((6-(4-(8-(1-methylpiperidin-4-yl)quinoxalin-2-yl)-1H-pyrazol-1-yl)hexyl)amino)isoindoline-1,3-dione] | > 1000 | > 1000 | > 1000 | > 1000 |  |  |  |  |  |  |
| O=C1CCC(N2C(=O)c3ccc(NCCCCCC(=O)N4CCC(O)(c5ccccc5)CC4)cc3C2=O)C(=O)N1 (centres unmarked) [GS-333, 2-(2,6-Dioxopiperidin-3-yl)-5-((6-(4-hydroxy-4-phenylpiperidin-1-yl)-6-oxohexyl)amino)isoindoline-1,3-dione] | > 1000 | 100 to 1000 | > 1000 | 100 to 1000 |  |  |  |  |  |  |
| O=C1CCC(N2C(=O)c3ccc(NCC4CC(n5cc(-c6cnc7cccc(N8CCOCC8)c7n6)cn5)C4)cc3C2=O)C(=O)N1 (centres unmarked) [GS-392, 2-(2,6-Dioxopiperidin-3-yl)-5-(((3-(4-(8-morpholinoquinoxalin-2-yl)-1H-pyrazol-1-yl)cyclobutyl)methyl)amino)isoindoline-1,3-dione] | > 1000 | 100 to 1000 | > 1000 | > 1000 |  |  |  |  |  |  |
| O=C1CCC(N2C(=O)c3ccc(NCCCCCC4(N5CCC(n6cc(-c7cnc8ccccc8n7)cn6)CC5)CC4)cc3C2=O)C(=O)N1 (centres unmarked) [GS-123, 2-(2,6-Dioxopiperidin-3-yl)-5-((5-(1-(4-(4-(quinoxalin-2-yl)-1H-pyrazol-1-yl)piperidin-1-yl)cyclopropyl)pentyl)amino)isoindoline-1,3-dione] | 100 to 1000 | 100 to 1000 | > 1000 | < 10 |  |  |  |  |  |  |

Continued, values first:

| IC50 (MV4;11 cells; [1]) [nM] | IC50 (MV4;11 cells; [2]) [nM] | IC50 (MOLM-13 cells; [3]) [nM] | IC50 (MOLM-13 cells; [4]) [nM] | IC50 (MV4;11 cells; with 10 nM gilteritinib, 3 days, 11 IC50 gilteritinib) [nM] | IC50 (MV4;11 cells; without gilteritinib, 3 days, 11 IC50) [nM] | IC50 (MOLM-13 cells; with 20 nM gilteritinib, 3 days, read-out: MOLM-13 IC50 gilteritinib) [nM] | IC50 (MOLM-13 cells; without gilteritinib, 3 days, read-out: MOLM-13 IC50) [nM] | IC50 (MV4;11 cells; [5]) [nM] | IC50 (MOLM-13 cells; [6]) [nM] | SMILES |
| --- | --- | --- | --- | --- | --- | --- | --- | --- | --- | --- |
| 100 to 1000 | < 10 | > 1000 | < 10 |  |  |  |  |  |  | O=C1CCC(N2C(=O)c3ccc(NCCCCCC(=O)N4CCC(n5cc(-c6cnc7cccc(N8CCOCC8)c7n6)cn5)CC4)cc3C2=O)C(=O)N1 (centres unmarked) [GS-034, 2-(2,6-Dioxopiperidin-3-yl)-5-((6-(4-(4-(8-morpholinoquinoxalin-2-yl)-1H-pyrazol-1-yl)piperidin-1-yl)-6-oxohexyl)amino)isoindoline-1,3-dione] |
| 100 to 1000 | 10 to 100 | 100 to 1000 | 10 to 100 |  |  |  |  |  |  | O=C1CCC(N2C(=O)c3ccc(NCCC[C@H]4C[C@H](n5cc(-c6cccc(C7CCOCC7)n6)cn5)C4)cc3C2=O)C(=O)N1 (stereo partly drawn) [GS-236, 2-(2,6-Dioxopiperidin-3-yl)-5-((3-(trans-3-(4-(6-(tetrahydro-2H-pyran-4-yl)pyridin-2-yl)-1H-pyrazol-1-yl)cyclobutyl)propyl)amino)isoindoline-1,3-dione] |
| 10 to 100 |  | 10 to 100 |  |  |  |  |  | < 10 | 10 to 100 | CC1CCCCC1c1cn([C@H]2C[C@H](CNc3ccc4c(c3)C(=O)N(C3CCC(=O)NC3=O)C4=O)C2)nc1C1CC1 (stereo partly drawn) [GS-633, 5-(((trans-3-(3-Cyclopropyl-4-(2-methylcyclohexyl)-1H-pyrazol-1-yl)cyclobutyl)methyl)amino)-2-(2,6-dioxopiperidin-3-yl)isoindoline-1,3-dione] |
| 10 to 100 |  | 10 to 100 |  |  |  |  |  | < 10 | < 10 | O=C1CCC(N2C(=O)c3ccc(NCCCCCCn4cc(-c5cnc6ccc(C7CCOCC7)cc6n5)cn4)cc3C2=O)C(=O)N1 (centres unmarked) [GS-542, 2-(2,6-Dioxopiperidin-3-yl)-5-((6-(4-(7-(tetrahydro-2H-pyran-4-yl)quinoxalin-2-yl)-1H-pyrazol-1-yl)hexyl)amino)isoindoline-1,3-dione] |
| < 10 | < 10 | 10 to 100 | < 10 |  |  |  |  |  |  | CN(C)c1cccc(-c2cn([C@H]3C[C@H](CNc4ccc5c(c4)C(=O)N(C4CCC(=O)NC4=O)C5=O)C3)nc2C2CC2)n1 (stereo partly drawn) [GS-259, 5-(((trans-3-(3-Cyclopropyl-4-(6-(dimethylamino)pyridin-2-yl)-1H-pyrazol-1-yl)cyclobutyl)methyl)amino)-2-(2,6-dioxopiperidin-3-yl)isoindoline-1,3-dione] |
| 100 to 1000 |  | 100 to 1000 |  |  |  |  |  | 10 to 100 | 10 to 100 | CN1CCN(c2ccc3nc(-c4cnn([C@H]5C[C@@H](CCCNc6ccc7c(c6)C(=O)N(C6CCC(=O)NC6=O)C7=O)C5)c4)cnc3c2)CC1 (stereo partly drawn) [GS-412, 2-(2,6-dioxopiperidin-3-yl)-5-((3-(cis-3-(4-(6-(4-methylpiperazin-1-yl)quinoxalin-2-yl)-1H-pyrazol-1-yl)cyclobutyl)propyl)amino)isoindoline-1,3-dione] |
| 10 to 100 | < 10 | > 1000 | < 10 |  |  |  |  |  |  | CN1C[C@H]2C[C@@H]1CN2c1ccc2ncc(-c3cnn([C@H]4C[C@H](CCCNc5ccc6c(c5)C(=O)N(C5CCC(=O)NC5=O)C6=O)C4)c3)nc2c1 (stereo partly drawn) [GS-411, 2-(2,6-dioxopiperidin-3-yl)-5-((3-(trans-3-(4-(7-((1R,4R)-5-methyl-2,5-diazabicyclo[2.2.1]heptan-2-yl)quinoxalin-2-yl)-1H-pyrazol-1-yl)cyclobutyl)propyl)amino)isoindoline-1,3-dione] |
| 100 to 1000 | 100 to 1000 | > 1000 | > 1000 |  |  |  |  |  |  | O=C1CCC(N2Cc3cc(CCCCC4CC(n5cc(-c6cnc7ccccc7n6)cn5)C4)ccc3C2=O)C(=O)N1 (centres unmarked) [GS-226, 3-(1-Oxo-5-(4-(3-(4-(quinoxalin-2-yl)-1H-pyrazol-1-yl)cyclobutyl)butyl)isoindolin-2-yl)piperidine-2,6-dione] |
| 10 to 100 |  | 100 to 1000 |  |  |  |  |  | 10 to 100 | 10 to 100 | O=C1CCC(N2C(=O)c3ccc(NC[C@H]4C[C@H](n5cc(-c6cccc(Cl)c6)c(C6CC6)n5)C4)cc3C2=O)C(=O)N1 (stereo partly drawn) [GS-457, 5-(((trans-3-(4-(3-chlorophenyl)-3-cyclopropyl-1H-pyrazol-1-yl)cyclobutyl)methyl)amino)-2-(2,6-dioxopiperidin-3-yl)isoindoline-1,3-dione] |
